Numbered stars: 1 amine (or outer) side, 2 acyl side, 3 side chain; on linkers, the order of the positions; unused ones are H or OH. Bridge positions count the residues as written; N and C are the ends. Square brackets hold non-standard residues; d marks the D form. Peptide text beside a SMILES is read from it. * marks the point of attachment. ξ: configuration not given here. TtdsdLys(DOTA)NH2 = NC(=O)[C@@H](CCCCNC(=O)CN1CCN(CC(=O)O)CCN(CC(=O)O)CCN(CC(=O)O)CC1)NC(=O)CCC(=O)NCCCOCCOCCOCCCN*; X3 = O=C(O)CN1CCN(CC(=O)O)CCN(CC(=O)NCCCOCCOCCOCCCN*)CCN(CC(=O)O)CC1; DOTA = O=C(O)CN1CCN(CC(=O)O)CCN(CC(=O)*)CCN(CC(=O)O)CC1; Trp(6-Cl) = N[C@@H](Cc1c[nH]c2cc(Cl)ccc12)C(=O)O; Phe(4-Cl) = N[C@@H](Cc1ccc(Cl)cc1)C(=O)O; X1 = O=C(CC1CCN([*:1])CC1)[*:2]; Cit = NC(=O)NCCC[C@H](N)C(=O)O; αMeD = C[C@](N)(CC(=O)O)C(=O)O; Suc = O=C(CCC(=O)[*:2])[*:1]; Tle = CC(C)(C)[C@H](N)C(=O)O; NHCH2CH2NMe2 = CN(C)CCN*; ξL = CC(C)CC(N)C(=O)O; Aib = CC(C)(N)C(=O)O
How the values were obtained:
[1] = molecular target: T1, Fc-fusion protein of human PSMA (hPSMA-Fc) (Homo sapiens, UniProt Q04609); assay: Surface plasmon resonance assay (Biacore T200, single cycle kinetic); format: binding; settings: PSMA SPR assay, hPSMA-Fc, 25° C.; pKD category; read-out: pKD CAT (converted)
T1 construct: purchased Acro Biosystems PSA-H5264
T1 sequence (Q04609 44-750 limits assumed): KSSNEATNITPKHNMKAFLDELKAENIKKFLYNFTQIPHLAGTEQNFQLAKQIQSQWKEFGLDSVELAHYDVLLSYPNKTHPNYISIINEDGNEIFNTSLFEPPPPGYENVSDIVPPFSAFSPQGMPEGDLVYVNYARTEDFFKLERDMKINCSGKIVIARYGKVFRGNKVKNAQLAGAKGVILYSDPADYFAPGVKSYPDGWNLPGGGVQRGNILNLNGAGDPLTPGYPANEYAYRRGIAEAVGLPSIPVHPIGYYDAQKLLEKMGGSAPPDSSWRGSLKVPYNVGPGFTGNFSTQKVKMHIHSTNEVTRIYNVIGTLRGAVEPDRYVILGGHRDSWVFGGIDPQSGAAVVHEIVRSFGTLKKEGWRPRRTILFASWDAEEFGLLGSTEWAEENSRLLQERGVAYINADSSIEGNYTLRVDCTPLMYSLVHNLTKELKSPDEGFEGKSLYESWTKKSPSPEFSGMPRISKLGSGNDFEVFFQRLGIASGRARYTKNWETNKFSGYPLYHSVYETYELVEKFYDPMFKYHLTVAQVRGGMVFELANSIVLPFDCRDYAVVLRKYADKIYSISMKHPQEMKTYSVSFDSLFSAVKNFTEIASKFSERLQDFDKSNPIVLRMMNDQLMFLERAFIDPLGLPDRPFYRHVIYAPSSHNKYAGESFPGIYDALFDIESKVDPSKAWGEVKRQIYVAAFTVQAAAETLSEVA
Outline: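 KD, expressed as pKD, came from 1:1 Langmuir fits of reference- and buffer-blank-subtracted SPR data. The runs were single-cycle kinetics at 25° C in HBST/0.1% DMSO over human PSMA-Fc, captured to ~1000 RU on a peptide-coated CM5 surface and regenerated with 10 mM glycine pH 1.5.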

[2] = molecular target: T2, PSMA-expressing C4-2 cells (Homo sapiens, UniProt Q04609); assay: FACS binding assay (competition with 50 nM PSM-0183); settings: FACS binding, PSMA-expressing C4-2 cells; pIC50 category; read-out: pIC50 [C4-2] CAT (converted)
T2 construct: PSMA-expressing C4-2 cells (ATCC, Cat. No. CRL-3314) were cultured in RPMI-1640; host or cells: C4-2 cells
T2 sequence (Q04609 whole entry): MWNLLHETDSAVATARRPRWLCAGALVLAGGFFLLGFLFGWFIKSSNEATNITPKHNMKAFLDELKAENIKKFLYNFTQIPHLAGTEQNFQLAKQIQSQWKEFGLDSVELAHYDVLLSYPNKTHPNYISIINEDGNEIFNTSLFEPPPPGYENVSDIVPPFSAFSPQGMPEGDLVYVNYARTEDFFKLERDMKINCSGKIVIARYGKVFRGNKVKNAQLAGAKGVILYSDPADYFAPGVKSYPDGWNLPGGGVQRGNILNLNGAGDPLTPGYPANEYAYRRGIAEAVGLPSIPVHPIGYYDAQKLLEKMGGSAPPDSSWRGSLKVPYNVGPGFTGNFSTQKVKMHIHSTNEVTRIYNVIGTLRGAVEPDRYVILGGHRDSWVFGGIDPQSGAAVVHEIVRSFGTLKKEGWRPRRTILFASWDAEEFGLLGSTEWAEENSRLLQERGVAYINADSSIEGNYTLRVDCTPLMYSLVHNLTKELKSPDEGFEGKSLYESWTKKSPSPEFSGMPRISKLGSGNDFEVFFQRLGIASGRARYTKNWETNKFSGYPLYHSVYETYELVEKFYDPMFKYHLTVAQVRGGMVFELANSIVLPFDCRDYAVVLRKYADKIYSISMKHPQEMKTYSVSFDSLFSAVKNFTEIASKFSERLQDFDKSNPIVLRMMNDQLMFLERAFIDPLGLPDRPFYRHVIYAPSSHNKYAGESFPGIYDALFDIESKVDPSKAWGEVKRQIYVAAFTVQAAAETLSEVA
Outline: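 Competition format: fluorescent tracer PSM-0183 (50 nM) displaced from PSMA on C4-2 cells by a test compound titration over 1 h at 4 °C. Bound tracer was quantified as flow-cytometric AF488 median fluorescence after washing. Four-parameter logistic fits of MFI data gave IC50 and pIC50.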

Row | Structure (SMILES) | Kd [1] | IC50 [2]
1 | CC(=O)N[C@H](C(=O)NC(C)(C)C(=O)N[C@@H](Cc1ccccc1)C(=O)N[C@H]1CSSC[C@@H](C(=O)N[C@H](C(=O)N[C@H](C(=O)NCCCOCCOCCOCCCNC(=O)CCC(=O)N[C@H](CCCCNC(=O)CN2CCN(CC(=O)O)CCN(CC(=O)O)CCN(CC(=O)O)CC2)C(N)=O)[C@@H](C)O)C(C)(C)C)NC(=O)[C@H](CC(N)=O)NC(=O)C(C)(C)NC(=O)[C@H](CCC(N)=O)NC(=O)[C@H](CCCCN)NC1=O)[C@@H](C)O [PSM-0303, Ac-Thr-Aib-Phe-[Cys-Lys-Gln-Aib-Asn-Cys]-Tle-Thr-Ttds-lys(DOTA)-NH2] (Ac-T[Aib]FCKQ[Aib]NC[Tle]T-{TtdsdLys(DOTA)NH2}; disulfide 4-9) | 12.6 to 126 nM | 200 to 1260 nM
2 | C[C@@H](O)[C@H](NC(=O)[C@@H](NC(=O)[C@@H]1CSSC[C@H](NC(=O)[C@H](Cc2c[nH]c3cc(Cl)ccc23)NC(=O)C(C)(C)NC(=O)[C@@H](NC(=O)CC2CCN(C(=O)CN3CCN(CC(=O)O)CCN(CC(=O)O)CCN(CC(=O)O)CC3)CC2)[C@@H](C)O)C(=O)N[C@@H](CCCCN)C(=O)N[C@@H](CCCNC(N)=O)C(=O)NC(C)(C)C(=O)N[C@@H](CC(N)=O)C(=O)N1)C(C)(C)C)C(N)=O [PSM-0304, DOTA-Cmp-Thr-Aib-6Clw-[Cys-Lys-Cit-Aib-Asn-Cys]-Tle-Thr-NH2] ({DOTA}-[X1]T[Aib][Trp(6-Cl)]CK[Cit][Aib]NC[Tle]T-NH2; disulfide 5-10) | < 12.6 nM | 200 to 1260 nM
3 | CC(C)CC(NC(=O)[C@@H]1CSSC[C@H](NC(=O)[C@H](Cc2ccccc2)NC(=O)[C@H](C)NC(=O)[C@@H](NC(=O)CCC(=O)NCCCOCCOCCOCCCNC(=O)CN2CCN(CC(=O)O)CCN(CC(=O)O)CCN(CC(=O)O)CC2)[C@@H](C)O)C(=O)N[C@@H](CCCCN)C(=O)N[C@@H](CCCNC(=N)N)C(=O)N[C@@H](C)C(=O)N[C@@H](CC(N)=O)C(=O)N1)C(=O)N[C@H](C(N)=O)[C@@H](C)O (stereo partly drawn) [PSM-0305, DOTA-Ttds-Thr-Ala-Phe-[Cys-Lys-Arg-Ala-Asn-Cys]-Lou-Thr-NH2] ({X3-Suc}-TAFCKRANC[ξL]T-NH2; disulfide 4-9) | 126 to 501 nM | 200 to 1260 nM
4 | C[C@@H](O)[C@H](NC(=O)CC1CCN(C(=O)CN2CCN(CC(=O)O)CCN(CC(=O)O)CCN(CC(=O)O)CC2)CC1)C(=O)NC(C)(C)C(=O)N[C@@H](Cc1ccc(Cl)cc1)C(=O)N[C@H]1CSSC[C@@H](C(=O)N[C@H](C(=O)NCCN(C)C)C(C)(C)C)NC(=O)[C@H](CC(N)=O)NC(=O)C(C)(C)NC(=O)[C@H](CCCNC(=N)N)NC(=O)[C@H](CCCCN)NC1=O [PSM-0306, DOTA-Cmp-Thr-Aib-Pcf-[Cys-Lys-Arg-Aib-Asn-Cys]-Tle-en (Me) 2] ({DOTA}-[X1]T[Aib][Phe(4-Cl)]CKR[Aib]NC[Tle]-NHCH2CH2NMe2; disulfide 5-10) | 12.6 to 126 nM | < 200 nM

More lines, now with the values ahead:

Row | Kd [1] | IC50 [2] | Structure (SMILES)
5 | < 12.6 nM | < 200 nM | C[C@@H](O)[C@H](NC(=O)[C@@H](NC(=O)[C@@H]1CSSC[C@H](NC(=O)[C@H](Cc2ccc(Cl)cc2)NC(=O)C(C)(C)NC(=O)[C@@H](NC(=O)CC2CCN(C(=O)CN3CCN(CC(=O)O)CCN(CC(=O)O)CCN(CC(=O)O)CC3)CC2)[C@@H](C)O)C(=O)N[C@@H](CCCCN)C(=O)N[C@@H](CCCNC(=N)N)C(=O)N[C@@](C)(CC(=O)O)C(=O)N[C@@H](CC(N)=O)C(=O)N1)C(C)(C)C)C(N)=O [PSM-0302, DOTA-Cmp-Thr-Aib-Pcf-[Cys-Lys-Arg-Amd-Asn-Cys]-Tle-Thr-NH2] ({DOTA}-[X1]T[Aib][Phe(4-Cl)]CKR[αMeD]NC[Tle]T-NH2; disulfide 5-10)
6 | < 12.6 nM | < 200 nM | CC(=O)N[C@H](C(=O)NC(C)(C)C(=O)N[C@@H](Cc1ccccc1)C(=O)N[C@H]1CSSC[C@@H](C(=O)N[C@H](C(=O)N[C@H](C(=O)N[C@@H](CC(=O)O)C(N)=O)[C@@H](C)O)C(C)(C)C)NC(=O)[C@H](CC(N)=O)NC(=O)[C@H](C)NC(=O)[C@H](CCCNC(N)=O)NC(=O)[C@H](CCCCN)NC1=O)[C@@H](C)O [PSM-0307, Ac-Thr-Aib-Pho-[Cys-Lys-Cit-Ala-Asn-Cys]-Tle-Thr-Asp-NH2] (Ac-T[Aib]FCK[Cit]ANC[Tle]TD-NH2; disulfide 4-9)
